Measured values published in patent US20160177395A1, “BIOMARKERS FOR THE PREDICTION OF RENAL INJURY” (priority 2007, published 2016).
Several values for one entry are separate records, joined by “and”; a condition that tells them apart may be missing. Equal entries are not always repeated.

Tested on: kidney tissues of treated or untreated rats
Assay: Real-time qRT-PCR of marker transcripts in kidney tissue panel, discovery stage (Table 22); as to normalized Real Time PCR MUSCYCG1R DB81 seg19-20: test concentration or dose not given here; as to normalized Real Time PCR RATRAB13X DB81 seg15-17: test concentration or dose not given here; as to normalized Real Time PCR RATRAB13X DB81 seg22: test concentration or dose not given here; as to normalized Real Time PCR W33294 DB81 seg23: test concentration or dose not given here; as to normalized Real Time PCR W33294 DB81 seg44: test concentration or dose not given here
Type: in vivo, rat
Parameters: AI502869_DB71_seg0 normalized Real Time PCR expression: unit not given beside the values
Conditions: for normalized Real Time PCR MMU09507_DB81_seg15 / normalized Real Time PCR MUSCYCG1R_DB81_seg19-20 / normalized Real Time PCR RATRAB13X_DB81_seg15-17 / normalized Real Time PCR RATRAB13X_DB81_seg22 / normalized Real Time PCR W33294_DB81_seg23 / normalized Real Time PCR W33294_DB81_seg44: kidney; for AA686189_DB71_seg6 normalized Real Time PCR expression / AA799594_DB71_seg0 normalized Real Time PCR expression / AA964541_DB71_seg0 normalized Real Time PCR expression / AI045075_DB71_seg6 normalized Real Time PCR expression / AI454051_DB71_seg0 normalized Real Time PCR expression / AI502869_DB71_seg0 normalized Real Time PCR expression / AW919147_DB71_seg0 normalized Real Time PCR expression / BI293562_DB71_seg2 normalized Real Time PCR expression / H31045_DB71_seg5 normalized Real Time PCR expression / H31799_DB71_seg23 normalized Real Time PCR expression / H31883_DB71_seg13 normalized Real Time PCR expression / H33998_DB71_seg19 normalized Real Time PCR / MUSCYCG1R_DB81_seg15-17 normalized Real Time PCR / RATLRFI_DB71_seg9 normalized Real Time PCR / RATRAB13X_DB71_seg11-13 normalized Real Time PCR / RNU24174_DB71_seg8 normalized Real Time PCR / W41270_DB81_seg11 normalized Real Time PCR / W64472_DB81_seg2 normalized Real Time PCR / W83813_DB81_seg27 normalized Real Time PCR: rat kidney
Procedure, shortened: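 Rat kidney RNA, DNase-treated until PCR-negative, reverse transcribed with SuperscriptII; SYBR Green real-time PCR, 40 cycles, undetected samples set to Ct 41. Relative quantity from efficiency^-Ct (standard-curve efficiency), normalized to the geometric mean of four median-scaled housekeeping genes, then multiplied by a constant factor.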

[1] = female rats, day5, listed as Gent
[2] = day1, individual animals (F and M)
[3] = day5, individual animals (F and M)
[4] = day28, individual animals (F and M)

Substance: Gentamycin
- normalized Real Time PCR MMU09507_DB81_seg15 (female rats, day1): 0.41 and 0.43 and 0.23
- normalized Real Time PCR MUSCYCG1R_DB81_seg19-20 (female rats, day1): 0.67 and 0.55 and 0.44
- normalized Real Time PCR RATRAB13X_DB81_seg15-17 (female rats, day1): 0.9 and 0.63 and 0.55
- normalized Real Time PCR RATRAB13X_DB81_seg22 (female rats, day1): 0.98 and 0.71 and 0.51
- normalized Real Time PCR W33294_DB81_seg23 (female rats, day1): 1 and 0.51 and 0.94
- normalized Real Time PCR W33294_DB81_seg44 (female rats, day1): 1.02 and 0.8 and 0.77
- normalized Real Time PCR MUSCYCG1R_DB81_seg19-20 (female rats, day5): 1.41
- normalized Real Time PCR MMU09507_DB81_seg15 [1]: 0.78 and 0.62 and 1.13
- normalized Real Time PCR MUSCYCG1R_DB81_seg19-20 [1]: 1.23 and 1.42
- normalized Real Time PCR RATRAB13X_DB81_seg15-17 [1]: 1.68 and 1.5 and 1.59
- normalized Real Time PCR RATRAB13X_DB81_seg22 [1]: 2.16 and 2.11 and 1.91
- normalized Real Time PCR W33294_DB81_seg23 [1]: 1.64 and 1.96 and 1.51
- normalized Real Time PCR W33294_DB81_seg44 [1]: 1.64 and 1.72 and 2.13
- normalized Real Time PCR MMU09507_DB81_seg15 (female rats, day28): 1.38 and 0.96 and 0.7
- normalized Real Time PCR MUSCYCG1R_DB81_seg19-20 (female rats, day28): 0.56 and 0.74 and 0.42
- normalized Real Time PCR RATRAB13X_DB81_seg15-17 (female rats, day28): 0.84 and 0.9 and 0.88
- normalized Real Time PCR RATRAB13X_DB81_seg22 (female rats, day28): 0.68 and 0.56 and 0.57
- normalized Real Time PCR W33294_DB81_seg44 (female rats, day28): 0.66 and 0.71
- normalized Real Time PCR MMU09507_DB81_seg15 (male rats, day1): 0.56 and 0.32 and 0.37
- normalized Real Time PCR RATRAB13X_DB81_seg22 (male rats, day1): 0.8 and 0.99 and 0.6
- normalized Real Time PCR W33294_DB81_seg23 (male rats, day1): 0.57 and 0.74 and 0.61
- normalized Real Time PCR W33294_DB81_seg44 (male rats, day1): 0.77 and 0.5 and 0.64
- normalized Real Time PCR MMU09507_DB81_seg15 (male rats, day5): 0.71 and 0.41 and 0.68
- normalized Real Time PCR MUSCYCG1R_DB81_seg19-20 (male rats, day5): 1.43 and 1
- normalized Real Time PCR RATRAB13X_DB81_seg15-17 (male rats, day5): 1.25 and 0.76 and 1.35
- normalized Real Time PCR RATRAB13X_DB81_seg22 (male rats, day5): 1.25 and 0.77 and 1.16
- normalized Real Time PCR W33294_DB81_seg23 (male rats, day5): 1.25 and 0.82 and 0.95
- normalized Real Time PCR W33294_DB81_seg44 (male rats, day5): 1.12 and 0.93 and 0.94
- normalized Real Time PCR MMU09507_DB81_seg15 (male rats, day28): 0.82 and 0.59 and 0.84
- normalized Real Time PCR MUSCYCG1R_DB81_seg19-20 (male rats, day28): 0.79 and 0.4 and 0.55
- normalized Real Time PCR RATRAB13X_DB81_seg15-17 (male rats, day28): 0.77 and 0.76 and 1.22
- normalized Real Time PCR RATRAB13X_DB81_seg22 (male rats, day28): 0.91 and 0.88 and 0.58
- normalized Real Time PCR W33294_DB81_seg23 (male rats, day28): 0.57 and 0.8 and 0.67
- AA686189_DB71_seg6 normalized Real Time PCR expression (day1, individual animals): 1.19 and 0.65 and 1.07 and 0.94 and 1.04 and 0.6
- AA799594_DB71_seg0 normalized Real Time PCR expression (day1, individual animals): 1.25 and 0.72 and 0.93 and 0.57 and 0.95 and 0.92
- AA964541_DB71_seg0 normalized Real Time PCR expression (day1, individual animals): 1.35 and 0.74 and 1.29 and 0.9 and 1.19 and 0.44
- AI045075_DB71_seg6 normalized Real Time PCR expression (day1, individual animals): 1.5 and 0.93 and 0 and 1.07 and 1.03 and 0.78
- AI454051_DB71_seg0 normalized Real Time PCR expression (day1, individual animals): 0.9 and 0.75 and 0.57 and 0.4 and 0.54 and 0.79
- AI502869_DB71_seg0 normalized Real Time PCR expression (day1, individual animals): 0.83 and 0.61 and 0.53 and 1.53 and 0.99 and 0.76
- AW919147_DB71_seg0 normalized Real Time PCR expression (day1, individual animals): 1.72 and 0.72 (2×) and 0.76 and 1.1 and 0.99
- BI293562_DB71_seg2 normalized Real Time PCR expression (day1, individual animals): 0.59 and 0.94 and 0.93 and 0.55 and 0.41
- H31045_DB71_seg5 normalized Real Time PCR expression (day1, individual animals): 0.27 and 0.22 and 0.73 and 0.16 and 0.19 and 0.15
- H31799_DB71_seg23 normalized Real Time PCR expression (day1, individual animals): 1.19 and 0.88 and 0.93 and 1 and 1.2
- H31883_DB71_seg13 normalized Real Time PCR expression (day1, individual animals): 0.99 and 0.92 and 0.82 (2×) and 0.61 and 0.73
- H33998_DB71_seg19 normalized Real Time PCR [2]: 1.31 and 0.83 and 0.56 and 1.51 and 1.35 and 0.99
- MUSCYCG1R_DB81_seg15-17 normalized Real Time PCR [2]: 0.63 and 0.53 and 0.66 and 0.5 and 0.49 and 0.41
- RATLRFI_DB71_seg9 normalized Real Time PCR [2]: 0.98 and 1.54 and 1.09 and 2.74 and 1.72 and 0.27
- RATRAB13X_DB71_seg11-13 normalized Real Time PCR [2]: 1.16 and 0.7 and 0.77 and 2.79 and 1.14 and 1.03
- RNU24174_DB71_seg8 normalized Real Time PCR [2]: 0.47 (2×) and 0.5 and 0.74 and 0.37 and 0.26
- W41270_DB81_seg11 normalized Real Time PCR [2]: 1.24 and 0.67 and 1.19 and 0.46 and 0.68 and 0.57
- W64472_DB81_seg2 normalized Real Time PCR [2]: 0.63 and 0.45 and 0.61 and 0.4 and 0.54 (2×)
- W83813_DB81_seg27 normalized Real Time PCR [2]: 0.84 and 0.79 and 0.78 and 0.53 and 0.58 and 0.71
- AA686189_DB71_seg6 normalized Real Time PCR expression (day5, individual animals): 0.64 and 0.72 and 1.21 and 0.81 and 0.83 and 0.75
- AA799594_DB71_seg0 normalized Real Time PCR expression (day5, individual animals): 0.99 and 0.89 (2×) and 1.52 and 0.56 and 1.04
- AA964541_DB71_seg0 normalized Real Time PCR expression (day5, individual animals): 0.86 and 0.58 and 0.91 and 0.76 and 0.87
- AI045075_DB71_seg6 normalized Real Time PCR expression (day5, individual animals): 0.76 and 1.04 (2×) and 0.62 and 1.1 and 0
- AI454051_DB71_seg0 normalized Real Time PCR expression (day5, individual animals): 0.63 (2×) and 1.04 and 1.19 and 0.8 and 0.82
- AI502869_DB71_seg0 normalized Real Time PCR expression (day5, individual animals): 0.73 and 0.62 and 0.96 and 0.51 and 0.43 and 0.53
- AW919147_DB71_seg0 normalized Real Time PCR expression (day5, individual animals): 0.86 and 0.88 and 0.95 and 0.71 and 0.79 and 0.78
- BI293562_DB71_seg2 normalized Real Time PCR expression (day5, individual animals): 0.95 and 0.76 and 2.8 and 2.32 and 1.61 and 0.93
- H31045_DB71_seg5 normalized Real Time PCR expression (day5, individual animals): 0.52 and 1.01 and 0.4 and 1.57 and 1.47 and 0.33
- H31799_DB71_seg23 normalized Real Time PCR expression (day5, individual animals): 0.92 and 0.91 and 1.36 and 1.08 and 0.76 and 0.88
- H31883_DB71_seg13 normalized Real Time PCR expression (day5, individual animals): 0.73 and 0.55 and 0.91 and 1.01 and 0.7 and 0.65
- H33998_DB71_seg19 normalized Real Time PCR [3]: 1.9 and 1.5 and 2.19 and 1.91 and 0.83 and 1.16
- MUSCYCG1R_DB81_seg15-17 normalized Real Time PCR [3]: 1.51 (2×) and 1.61 and 0.95 and 0.79 and 1.02
- RATLRFI_DB71_seg9 normalized Real Time PCR [3]: 0.48 and 0.43 and 4.15 and 1.35 and 1.13 and 0.59
- RATRAB13X_DB71_seg11-13 normalized Real Time PCR [3]: 0.9 (2×) and 0.82 and 1.12 and 0.61 and 0.8
- RNU24174_DB71_seg8 normalized Real Time PCR [3]: 0.31 and 0.22 and 0.81 and 0.65 and 0.36 and 0.4
- W41270_DB81_seg11 normalized Real Time PCR [3]: 2.04 and 1.34 and 2.42 and 2.03 and 1.08 and 1.2
- W64472_DB81_seg2 normalized Real Time PCR [3]: 1.5 and 1.2 and 0.94 and 1.95 and 1.62 and 1.61
- W83813_DB81_seg27 normalized Real Time PCR [3]: 2.07 and 1.82 and 1.7 and 1.35 and 0.88 and 1.4
- AA686189_DB71_seg6 normalized Real Time PCR expression (day28, individual animals): 2.7 and 2.09 and 2.48 and 1.98 and 1.23 and 2.51
- AA799594_DB71_seg0 normalized Real Time PCR expression (day28, individual animals): 0.84 and 0.8 and 0.89 and 0.54 and 0.5 and 0.67
- AA964541_DB71_seg0 normalized Real Time PCR expression (day28, individual animals): 3.19 and 1.77 and 2.16 and 3.33 and 1.45 and 3.18
- AI045075_DB71_seg6 normalized Real Time PCR expression (day28, individual animals): 2.09 and 3.14 and 1.74 and 1.25 and 1.99 and 1.29
- AI454051_DB71_seg0 normalized Real Time PCR expression (day28, individual animals): 0.67 and 1 and 0.95 and 1.14 and 0.64 and 0.71
- AI502869_DB71_seg0 normalized Real Time PCR expression (day28, individual animals): 0.66 and 0.74 and 0.73 and 1.36 and 0.92 and 0.77
- AW919147_DB71_seg0 normalized Real Time PCR expression (day28, individual animals): 0.73 and 1.12 and 0.89 and 0.75 and 0.57 and 0.93
- BI293562_DB71_seg2 normalized Real Time PCR expression (day28, individual animals): 2.01 and 1.19 and 0.81 and 0.63 and 0.72 and 1.16
- H31045_DB71_seg5 normalized Real Time PCR expression (day28, individual animals): 0.79 and 0.84 and 0.67 and 1.11 and 4.65 and 0.45
- H31799_DB71_seg23 normalized Real Time PCR expression (day28, individual animals): 0.88 and 1.05 and 1.17 (2×) and 0.37
- H31883_DB71_seg13 normalized Real Time PCR expression (day28, individual animals): 0.88 and 0.98 and 0.96 and 1.05 and 0.64 and 0.8
- H33998_DB71_seg19 normalized Real Time PCR [4]: 0.4 (2×) and 0.7 and 0.56 and 0.49 and 0.42
- MUSCYCG1R_DB81_seg15-17 normalized Real Time PCR [4]: 0.69 and 0.62 and 0.57 and 0.65 and 0.56 and 0.54
- RATLRFI_DB71_seg9 normalized Real Time PCR [4]: 5.63 and 4.17 and 2.43 and 2.56 and 1.59 and 2.51
- RATRAB13X_DB71_seg11-13 normalized Real Time PCR [4]: 0.83 and 1.12 and 0.88 and 1.17 and 0.76 and 1.22
- RNU24174_DB71_seg8 normalized Real Time PCR [4]: 1.53 and 1.2 and 0.59 and 1.91 and 0.69 and 0.65
- W41270_DB81_seg11 normalized Real Time PCR [4]: 0.94 and 0.81 (2×) and 1.42 and 0.75 and 0.84
- W64472_DB81_seg2 normalized Real Time PCR [4]: 0.92 and 0.66 and 0.54 and 1.49 and 0.84 and 0.81
- W83813_DB81_seg27 normalized Real Time PCR [4]: 0.45 and 0.34 and 0.62 and 0.78 and 0.54 and 0.38
